Source: publication PMC11995216, “End-to-End Backbone Cyclization Enhances Passive Permeability of bRo5 Oligomeric Depsipeptides with Nonlinear Size Dependence” (ACS Medicinal Chemistry Letters, 2025)
Read-outs that look alike come from different tables or passages of the source.

Experiments:
PAMPA [1] = tested on: PAMPA
PAMPA [2] = tested on: PAMPA; remark: listed apart in the source
[3] = PAMPA, permeability assay across an artificial membrane; details: for Acceptor Concentration, Ave: after incubation
[4] = PAMPA, ratio-based method, mean ± SD, C0 500 uM, UV detection

CCCCC[C@@H]1OC(=O)[C@@H](C)N(C)C(=O)[C@H](CCCCC)OC(=O)[C@@H](C)N(C)C(=O)[C@H](CCCCC)OC(=O)[C@@H](C)N(C)C(=O)[C@H](CCCCC)OC(=O)[C@@H](C)N(C)C1=O [Compound C1.4, ent-verticilide]
Papp (PAMPA [1]; Papp (x 10^-6 cm/s) – ELSD Detection / [row 1], ELSD Detection): 7.05 ×10⁻⁶ cm/s
Papp (PAMPA [1]; Papp (x 10^-6 cm/s) – ELSD Detection / [row 2], ELSD Detection): 7.2 ×10⁻⁶ cm/s
Papp (PAMPA [1]; Papp (x 10^-6 cm/s) – ELSD Detection / [row 3], ELSD Detection): 4.28 ×10⁻⁶ cm/s
Papp (PAMPA [1]; Papp (x 10^-6 cm/s) – ELSD Detection / [row 4], ELSD Detection): 7.39 ×10⁻⁶ cm/s
Papp (PAMPA [1]; Papp (x 10^-6 cm/s) – ELSD Detection / [row 5], ELSD Detection): 4.99 ×10⁻⁶ cm/s
Papp (PAMPA [1]; Papp (x 10^-6 cm/s) – ELSD Detection / [row 6], ELSD Detection): 6.24 ×10⁻⁶ cm/s
Papp (PAMPA [1]; Papp (x 10^-6 cm/s) – ELSD Detection / [row 7], ELSD Detection): 5.58 ×10⁻⁶ cm/s
Papp (PAMPA [1]; Papp (x 10^-6 cm/s) – ELSD Detection / [row 8], ELSD Detection): 7.27 ×10⁻⁶ cm/s
Papp (PAMPA [1]; Papp (x 10^-6 cm/s) – ELSD Detection / [row 9], ELSD Detection): 4.68 ×10⁻⁶ cm/s
Papp (PAMPA [1]; Papp (x 10^-6 cm/s) – ELSD Detection / [row 10], ELSD Detection): 4.63 ×10⁻⁶ cm/s
Papp (PAMPA [1]; Papp (x 10^-6 cm/s) – ELSD Detection / [row 11], ELSD Detection): 4.05 ×10⁻⁶ cm/s
Papp (PAMPA [1]; Papp (x 10^-6 cm/s) – ELSD Detection / [row 12], ELSD Detection): 6.98 ×10⁻⁶ cm/s
Papp (PAMPA [1]; Papp (x 10^-6 cm/s) – ELSD Detection / [row 13], ELSD Detection): 4.62 ×10⁻⁶ cm/s
Papp (PAMPA [1]; Papp (x 10^-6 cm/s) – ELSD Detection / [row 14], ELSD Detection): 3.79 ×10⁻⁶ cm/s
Papp (PAMPA [1]; Papp (x 10^-6 cm/s) – ELSD Detection / [row 15], ELSD Detection): 4.66 ×10⁻⁶ cm/s
Papp (PAMPA [1]; Papp (x 10^-6 cm/s) – ELSD Detection / [row 16], ELSD Detection): 5.98 ×10⁻⁶ cm/s
Papp (PAMPA [1]; Papp (x 10^-6 cm/s) – ELSD Detection / [row 17], ELSD Detection): 5.46 ×10⁻⁶ cm/s
Papp (PAMPA [1]; Papp (x 10^-6 cm/s) – ELSD Detection / [row 18], ELSD Detection): 6.2 ×10⁻⁶ cm/s
Papp (PAMPA [1]; Papp (x 10^-6 cm/s) – ELSD Detection / [row 19], ELSD Detection): 5.51 ×10⁻⁶ cm/s
Papp (PAMPA [1]; Papp (x 10^-6 cm/s) – ELSD Detection / [row 20], ELSD Detection): 5.72 ×10⁻⁶ cm/s
Papp (PAMPA [1]; Papp (x 10^-6 cm/s) – ELSD Detection / [row 21], ELSD Detection): 4.75 ×10⁻⁶ cm/s
Papp (PAMPA [1]; Papp (x 10^-6 cm/s) – ELSD Detection / [row 22], ELSD Detection): 7.56 ×10⁻⁶ cm/s
Papp (PAMPA [1]; Papp (x 10^-6 cm/s) – ELSD Detection / [row 23], ELSD Detection): 7.22 ×10⁻⁶ cm/s
Papp (PAMPA [1]; Papp (x 10^-6 cm/s) – ELSD Detection / [row 24], ELSD Detection): 4.78 ×10⁻⁶ cm/s
Papp (PAMPA [1]; Papp (x 10^-6 cm/s) – UV Detection / [row 1], UV Detection): 6.39 ×10⁻⁶ cm/s
Papp (PAMPA [1]; Papp (x 10^-6 cm/s) – UV Detection / [row 2], UV Detection): 7.95 ×10⁻⁶ cm/s
Papp (PAMPA [1]; Papp (x 10^-6 cm/s) – UV Detection / [row 3], UV Detection): 6.48 ×10⁻⁶ cm/s
Papp (PAMPA [1]; Papp (x 10^-6 cm/s) – UV Detection / [row 4], UV Detection): 7.85 ×10⁻⁶ cm/s
Papp (PAMPA [1]; Papp (x 10^-6 cm/s) – UV Detection / [row 5], UV Detection): 6.83 ×10⁻⁶ cm/s
Papp (PAMPA [1]; Papp (x 10^-6 cm/s) – UV Detection / [row 6], UV Detection): 7.11 ×10⁻⁶ cm/s
Papp (PAMPA [1]; Papp (x 10^-6 cm/s) – UV Detection / [row 7], UV Detection): 6.85 ×10⁻⁶ cm/s
Papp (PAMPA [1]; Papp (x 10^-6 cm/s) – UV Detection / [row 8], UV Detection): 7.63 ×10⁻⁶ cm/s
Papp (PAMPA [1]; Papp (x 10^-6 cm/s) – UV Detection / [row 9], UV Detection): 4.68 ×10⁻⁶ cm/s
Papp (PAMPA [1]; Papp (x 10^-6 cm/s) – UV Detection / [row 10], UV Detection): 4.63 ×10⁻⁶ cm/s
Papp (PAMPA [1]; Papp (x 10^-6 cm/s) – UV Detection / [row 11], UV Detection): 4.05 ×10⁻⁶ cm/s
Papp (PAMPA [1]; Papp (x 10^-6 cm/s) – UV Detection / [row 12], UV Detection): 6.98 ×10⁻⁶ cm/s
Papp (PAMPA [1]; Papp (x 10^-6 cm/s) – UV Detection / [row 13], UV Detection): 4.62 ×10⁻⁶ cm/s
Papp (PAMPA [1]; Papp (x 10^-6 cm/s) – UV Detection / [row 14], UV Detection): 3.79 ×10⁻⁶ cm/s
Papp (PAMPA [1]; Papp (x 10^-6 cm/s) – UV Detection / [row 15], UV Detection): 4.66 ×10⁻⁶ cm/s
Papp (PAMPA [1]; Papp (x 10^-6 cm/s) – UV Detection / [row 16], UV Detection): 5.98 ×10⁻⁶ cm/s
Papp (PAMPA [1]; Papp (x 10^-6 cm/s) – UV Detection / [row 17], UV Detection): 6.44 ×10⁻⁶ cm/s
Papp (PAMPA [1]; Papp (x 10^-6 cm/s) – UV Detection / [row 18], UV Detection): 7.86 ×10⁻⁶ cm/s
Papp (PAMPA [1]; Papp (x 10^-6 cm/s) – UV Detection / [row 19], UV Detection): 4.86 ×10⁻⁶ cm/s
Papp (PAMPA [1]; Papp (x 10^-6 cm/s) – UV Detection / [row 20], UV Detection): 6.27 ×10⁻⁶ cm/s
Papp (PAMPA [1]; Papp (x 10^-6 cm/s) – UV Detection / [row 21], UV Detection): 6.77 ×10⁻⁶ cm/s
Papp (PAMPA [1]; Papp (x 10^-6 cm/s) – UV Detection / [row 22], UV Detection): 5.18 ×10⁻⁶ cm/s
Papp (PAMPA [1]; Papp (x 10^-6 cm/s) – UV Detection / [row 23], UV Detection): 5.55 ×10⁻⁶ cm/s
Papp (PAMPA [1]; Papp (x 10^-6 cm/s) – UV Detection / [row 24], UV Detection): 6.05 ×10⁻⁶ cm/s
Acceptor Concentration (PAMPA [2]; Acceptor Concentration (uM) – ELSD Detection / [row 1]): 122 µM
Acceptor Concentration (PAMPA [2]; Acceptor Concentration (uM) – ELSD Detection / [row 2]): 148 µM
Acceptor Concentration (PAMPA [2]; Acceptor Concentration (uM) – ELSD Detection / [row 3]): 157 µM
Acceptor Concentration (PAMPA [2]; Acceptor Concentration (uM) – ELSD Detection / [row 4]): 122 µM
Acceptor Concentration (PAMPA [2]; Acceptor Concentration (uM) – ELSD Detection / [row 5]): 137 µM
Acceptor Concentration (PAMPA [2]; Acceptor Concentration (uM) – ELSD Detection / [row 6]): 76.5 µM
Acceptor Concentration (PAMPA [2]; Acceptor Concentration (uM) – ELSD Detection / [row 7]): 98.2 µM
Acceptor Concentration (PAMPA [2]; Acceptor Concentration (uM) – ELSD Detection / [row 8]): 94.4 µM
Acceptor Concentration (PAMPA [2]; Acceptor Concentration (uM) – ELSD Detection / [row 9]): 105 µM
Acceptor Concentration (PAMPA [2]; Acceptor Concentration (uM) – ELSD Detection / [row 10]): 92.1 µM
Acceptor Concentration (PAMPA [2]; Acceptor Concentration (uM) – ELSD Detection / [row 11]): 114 µM
Acceptor Concentration (PAMPA [2]; Acceptor Concentration (uM) – ELSD Detection / [row 12]): 159 µM
Acceptor Concentration (PAMPA [2]; Acceptor Concentration (uM) – ELSD Detection / [row 13]): 121 µM
Acceptor Concentration (PAMPA [2]; Acceptor Concentration (uM) – ELSD Detection / [row 14]): 125 µM
Acceptor Concentration (PAMPA [2]; Acceptor Concentration (uM) – ELSD Detection / [row 15]): 150 µM
Acceptor Concentration (PAMPA [2]; Acceptor Concentration (uM) – ELSD Detection / [row 16]): 136 µM
Acceptor Concentration (PAMPA [2]; Acceptor Concentration (uM) – ELSD Detection / [row 17]): 142 µM
Acceptor Concentration (PAMPA [2]; Acceptor Concentration (uM) – ELSD Detection / [row 18]): 129 µM
Acceptor Concentration (PAMPA [2]; Acceptor Concentration (uM) – ELSD Detection / [row 19]): 90.2 µM
Acceptor Concentration (PAMPA [2]; Acceptor Concentration (uM) – ELSD Detection / [row 20]): 59.8 µM
Acceptor Concentration (PAMPA [2]; Acceptor Concentration (uM) – ELSD Detection / [row 21]): 91.7 µM
Acceptor Concentration (PAMPA [2]; Acceptor Concentration (uM) – ELSD Detection / [row 22]): 130 µM
Acceptor Concentration (PAMPA [2]; Acceptor Concentration (uM) – ELSD Detection / [row 23]): 115 µM
Acceptor Concentration (PAMPA [2]; Acceptor Concentration (uM) – ELSD Detection / [row 24]): 125 µM
Diffusion (%) ([3]; PAMPA percent diffusion, C0 500 uM): 25.5 ± 3.4%
Papp at 500 uM ([3]; PAMPA, Ave, ELSD detection, C0 500 uM): 5.69 ×10⁻⁶ cm/s
Papp at 500 uM [3, 4]: 7.14 ± 0.65 ×10⁻⁶ cm/s
Acceptor Concentration, Ave ([3]; PAMPA, ELSD detection, C0 500 uM): 118.4 µM
Acceptor Concentration, Ave ([3]; PAMPA, UV detection, C0 500 uM): 127.6 µM
Acceptor Concentration, Ave ([3]; PAMPA, UV detection, C0 500 uM, listed as ent‐Verticilide): 127.56 µM
LogPapp [3, 4]: -5.21 ± 0.09
Δ % diffusion ([3]; increase: difference between percent diffusion of macrocycle vs linear counterpart): ↑14%
